Results taken from US12162858B2, “Quinoline derivatives as inhibitors of AXL/MER RTK and CSF1R” (QURIENT CO., LTD., priority 2018, dated 2024).
pKd: −log10 of the molar value. Read-outs that look alike come from different tables or passages of the source.

What was measured:
CSF1R = CSF1R (Homo sapiens, UniProt P07333); experiment: KINOMEscan competition binding assay for CSF1R; set-up: DNA tag for qPCR (not a peptide); host or cells: E. coli/T7 phage or HEK-293; details: for pKd: read-out: CSF1R kinase binding activity (Kd)
Procedure: KINOMEscan™ is based on a competition binding assay that quantitatively measures the ability of a compound to compete with an immobilized, active-site directed ligand. The assay is performed by combining three components: DNA-tagged kinase; immobilized ligand; and a test compound. The ability of the test compound to compete with the immobilized ligand is measured via quantitative PCR of the DNA tag.
E. coli were grown to log-phase and infected with T7 phage and incubated with shaking at 32° C. until lysis. The lysates were centrifuged and filtered to remove cell debris. The remaining kinases were produced in HEK-293 cells and subsequently tagged with DNA for qPCR detection. Streptavidin-coated magnetic beads were treated with biotinylated small molecule ligands for 30 minutes at room temperature to generate affinity resins for kinase assays. The liganded beads were blocked with excess biotin and washed with blocking buffer (SeaBlock (Pierce), 1% BSA, 0.05% Tween 20, 1 mM DTT) to remove unbound ligand and to reduce non-specific binding. Binding reactions were assembled by combining kinases, liganded affinity beads, and test compounds in 1× binding buffer (20% SeaBlock, 0.17×PBS, 0.05% Tween 20, 6 mM DTT). Test compounds were prepared as 111× stocks in 100% DMSO. Kds were determined using an 11-point 3-fold compound dilution series with three DMSO control points. All compounds for Kd measurements are distributed by acoustic transfer (non-contact dispensing) in 100% DMSO. The compounds were then diluted directly into the assays such that the final concentration of DMSO was 0.9%. In case of % inhibition, test compounds were prepared as 40× stocks in 100% DMSO and directly diluted into the assay. All reactions performed in polypropylene 384-well plate. Each was a final volume of 0.02 ml. The assay plates were incubated at room temperature with shaking for 1 hour and the affinity beads were washed with wash buffer (1×PBS, 0.05% Tween 20). The beads were then re-suspended in elution buffer (1×PBS, 0.05% Tween 20, 0.5 μM non-biotinylated affinity ligand) and incubated at room temperature with shaking for 30 minutes. The kinase concentration in the eluates was measured by qPCR.
The CSF1R kinase binding activity results are shown in tables 1 (Kd) and 2 (percent inhibition at a concentration of 0.1 uM of compound to be tested).
Binding constants (Kds) were calculated with a standard dose-response curve using the Hill equation: […]
The Hill Slope was set to −1.
Curves were fitted using a non-linear least square fit with the Levenberg-Marquardt algorithm.
Binding % inhibition were calculated with as below:
[formula] • negative control=DMSO (100% Ctrl) • positive control=control compound (0% Ctrl)

Axl = biological target: T1, Axl (Homo sapiens, UniProt P30530); experiment: LanthaScreen Eu kinase binding assay for Axl
T1 sequence (P30530 26-894): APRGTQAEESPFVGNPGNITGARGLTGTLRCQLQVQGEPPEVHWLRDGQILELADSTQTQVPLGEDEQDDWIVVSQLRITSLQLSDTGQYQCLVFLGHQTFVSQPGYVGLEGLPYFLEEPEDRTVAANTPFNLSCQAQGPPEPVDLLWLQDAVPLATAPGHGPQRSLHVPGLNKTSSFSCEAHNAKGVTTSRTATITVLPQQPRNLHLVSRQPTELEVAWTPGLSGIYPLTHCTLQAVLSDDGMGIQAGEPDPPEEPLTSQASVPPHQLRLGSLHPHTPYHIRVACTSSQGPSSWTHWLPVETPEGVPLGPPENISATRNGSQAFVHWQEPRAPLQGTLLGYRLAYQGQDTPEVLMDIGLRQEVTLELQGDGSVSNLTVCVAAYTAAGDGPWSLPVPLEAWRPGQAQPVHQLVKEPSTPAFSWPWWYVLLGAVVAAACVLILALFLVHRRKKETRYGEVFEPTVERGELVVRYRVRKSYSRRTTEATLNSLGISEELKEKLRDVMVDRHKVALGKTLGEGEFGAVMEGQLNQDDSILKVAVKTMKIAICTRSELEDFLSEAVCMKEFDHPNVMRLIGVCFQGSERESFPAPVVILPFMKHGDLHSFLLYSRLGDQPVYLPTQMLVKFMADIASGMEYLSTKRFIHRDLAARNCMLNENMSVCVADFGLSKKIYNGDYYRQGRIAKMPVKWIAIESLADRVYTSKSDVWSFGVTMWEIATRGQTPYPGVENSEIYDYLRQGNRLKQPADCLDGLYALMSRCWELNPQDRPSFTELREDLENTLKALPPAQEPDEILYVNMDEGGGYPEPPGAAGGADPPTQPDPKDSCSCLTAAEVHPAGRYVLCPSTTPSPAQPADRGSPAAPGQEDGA
Procedure: LanthaScreen® Eu Kinase Binding assays were conducted at Life Technologies using the manufacturer's specifications for each kinase indicated.
Briefly, the principle behind this assay is based upon the binding and displacement of an Alexa Fluor 647-labeled tracer to the kinase of interest. Binding of the tracer to the kinase is detected using an EU-labeled anti-tag antibody. Simultaneous binding of both the tracer and antibody to the kinase gives rise to a FRET-signal. Binding of an inhibitor to the kinase competes for binding with the tracer, resulting in a loss of FRET-signal.
A given compound was diluted in DMSO to make a stock compound solution. The stock compound solution was serially diluted over eight steps in DMSO. Each diluted compound solution in DMSO was diluted in kinase buffer. Afterwards four kinds of working solution were prepared. First, Tracer-Working solution consists of Tracer 236 and Kinase Buffer. Second, Axl, Mer, Tyro3 or Met/anti-GST-AB-Working solution contained one of the kinases Axl, and Mer or anti-GST-AB (=anti glutathione-S-transferase antibody) in Kinase Buffer. Third, anti-GST-AB-Working solution was made with anti-GST-AB and Kinase Buffer. Last, in the DMSO-Working solution DMSO was added to Kinase Buffer to a final concentration to 3%. Each of the four kinds of working solutions were separately added to the assay plate and then incubated for 1 h at room temperature. After incubation, the assay plate was measured with respect to the FRET-Signal with the EnVision (Perkin Elmer) using the program LanthaHTRF-Assay. Data evaluation was done in the Quattro Workflow software. Kd (the equilibrium dissociation constant) values were calculated relative to vehicle (DMSO) control wells.

[1] = read-out: CSF1R kinase binding activity, Percent (%) inhibition
[2] = read-out: CSF1R kinase binding activity, Range
[3] = read-out: Axl kinase binding activity (Kd)

CSF1R, sequence (P07333 20-972): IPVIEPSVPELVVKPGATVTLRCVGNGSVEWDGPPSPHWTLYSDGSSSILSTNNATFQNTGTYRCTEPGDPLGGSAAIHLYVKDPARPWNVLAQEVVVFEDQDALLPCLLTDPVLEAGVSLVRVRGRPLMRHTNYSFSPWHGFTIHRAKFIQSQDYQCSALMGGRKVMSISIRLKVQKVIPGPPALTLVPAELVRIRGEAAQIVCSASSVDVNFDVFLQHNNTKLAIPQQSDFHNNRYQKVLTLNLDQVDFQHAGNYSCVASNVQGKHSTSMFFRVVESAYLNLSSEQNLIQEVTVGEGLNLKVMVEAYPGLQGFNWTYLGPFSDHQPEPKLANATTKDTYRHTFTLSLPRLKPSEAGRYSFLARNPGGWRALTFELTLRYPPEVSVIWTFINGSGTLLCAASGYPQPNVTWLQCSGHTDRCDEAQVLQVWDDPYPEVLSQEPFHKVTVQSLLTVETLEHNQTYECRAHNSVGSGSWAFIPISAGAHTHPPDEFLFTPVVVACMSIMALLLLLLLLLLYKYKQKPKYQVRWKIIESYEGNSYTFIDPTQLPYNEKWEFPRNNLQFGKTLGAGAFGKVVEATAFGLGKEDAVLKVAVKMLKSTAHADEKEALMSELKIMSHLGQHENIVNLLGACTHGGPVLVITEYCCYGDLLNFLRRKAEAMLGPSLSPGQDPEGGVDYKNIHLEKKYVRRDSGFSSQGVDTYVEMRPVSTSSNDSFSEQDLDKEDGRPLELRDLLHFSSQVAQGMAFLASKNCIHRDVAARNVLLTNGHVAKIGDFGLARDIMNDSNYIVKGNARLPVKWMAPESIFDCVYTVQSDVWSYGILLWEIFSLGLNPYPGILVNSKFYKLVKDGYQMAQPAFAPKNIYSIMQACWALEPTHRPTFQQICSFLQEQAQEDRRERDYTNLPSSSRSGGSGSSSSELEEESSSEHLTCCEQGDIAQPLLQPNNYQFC

SMILES | inhibition at 0.1 µM (CSF1R; [1]) [%] | inhibition at 0.1 µM (CSF1R; [2]) [%] | pKd (Axl; [3]) | pKd (CSF1R) | pKd (Axl; comparison of compounds of present invention (**) vs compounds of WO2016/166250 (*), read-out: Binding activity Axl (Kd))
COc1cc2nccc(Oc3ccc(NC(=O)c4nn(C5CCNC5)cc4OCC(F)(F)F)cn3)c2cc1OC (stereo not drawn) [Compound 132] | 16 | < 50 | ≤ 6.30 |  | 
COc1cc2nccc(Oc3ccc(NC(=O)c4nn(C5CC5)cc4OCC4CNC4)nc3)c2cc1OC [Compound 144] | 73 | 50 to 80 | 6.30 to 7.00 |  | 
COc1cc2nccc(Oc3ccc(NC(=O)c4nn(C5CC5)cc4OCC4CCC4)nn3)c2cc1OC [Compound 149] | 76 | 50 to 80 | > 7.00 |  | 
COc1cc2nccc(Oc3ccc(NC(=O)c4nn(C5CCN(C)C5)cc4OCC(F)(F)F)cc3F)c2cc1OC (stereo not drawn) [Compound 96] | 57 | 50 to 80 | > 7.00 |  | 
COCCOc1cn(CC(C)O)nc1C(=O)Nc1ccc(Oc2ccnc3cc(OC)c(OC)cc23)cn1 (stereo not drawn) [Compound 150] | 74 | 50 to 80 | > 7.00 |  | 
CNCCn1cc(OCC(F)(F)F)c(C(=O)Nc2ccc(Oc3ccnc4cc(OC)c(OC)cc34)cc2)n1 [Compound 119] | 9 | < 50 | 6.30 to 7.00 |  | 
CCCn1cc(OCCNC)c(C(=O)Nc2ccc(Oc3ccnc4cc(OC)c(OC)cc34)cn2)n1 [Compound 140] | 38 | < 50 | ≤ 6.30 |  | 
CNCCOc1cn(C2CC2)nc1C(=O)Nc1ccc(Oc2ccnc3cc(OC)c(OC)cc23)cn1 [Compound 141] | 23 | < 50 | ≤ 6.30 |  | 
COc1cc2nccc(Oc3ccc(NC(=O)c4nn(C5CCOC5)cc4OCC(F)(F)F)cn3)c2cc1OC (stereo not drawn) [Compound 138] | 9 | < 50 | > 7.00 |  | 
CCn1cc(OC(C)C)c(C(=O)Nc2ccc(Oc3ccnc4cc(OC)c(OC)cc34)cn2)n1 [Compound 6] | 97 | ≥ 80 | > 7.00 | > 7.00 | 
COc1cc2nccc(Oc3ccc(NC(=O)c4nn(C5CC5)cc4NCC(F)(F)F)nn3)c2cc1OC [Compound 148] | 60 | 50 to 80 | > 7.00 |  | 
COc1cc2nccc(Oc3ccc(NC(=O)c4nn(C)cc4OCC(F)(F)F)nn3)c2cc1OC [Compound 102] | 87 | ≥ 80 | > 7.00 |  | 
COc1cc2nccc(Oc3ccc(NC(=O)c4nn(C5CCNC5)cc4OCC(F)(F)F)nn3)c2cc1OC (stereo not drawn) [Compound 122] | 19 | < 50 | 6.30 to 7.00 |  | 

The next lines start with the values.

inhibition at 0.1 µM (CSF1R; [1]) [%] | inhibition at 0.1 µM (CSF1R; [2]) [%] | pKd (Axl; [3]) | pKd (CSF1R) | pKd (Axl; comparison of compounds of present invention (**) vs compounds of WO2016/166250 (*), read-out: Binding activity Axl (Kd)) | SMILES
93 | ≥ 80 | > 7.00 |  |  | COc1cc2nccc(Oc3ccc(NC(=O)c4nn(CC(C)O)cc4OCC4CCC4)nc3)c2cc1OC (stereo not drawn) [Compound 163]
90 | ≥ 80 | > 7.00 |  |  | COCCOc1cn(C2CC2)nc1C(=O)Nc1ccc(Oc2ccnc3cc(OC)c(OC)cc23)cn1 [Compound 107]
97 | ≥ 80 | > 7.00 | > 7.00 |  | CCCn1cc(OCC(F)(F)F)c(C(=O)Nc2ccc(Oc3ccnc4cc(OC)c(OC)cc34)cn2)n1 [Compound 7]
100 | ≥ 80 | > 7.00 |  | 8.85 | COc1cc2nccc(Oc3ccc(NC(=O)c4nn(CC5COC5)cc4OCC(F)(F)F)nc3)c2cc1OC [Compound 92]
95 | ≥ 80 | > 7.00 |  |  | COc1cc2nccc(Oc3ccc(NC(=O)c4nn(C5CC5)cc4OCC4COC4)nc3)c2cc1OC [Compound 143]
94 | ≥ 80 | > 7.00 |  |  | COc1cc2nccc(Oc3ccc(NC(=O)c4nn(CC5COC5)cc4OCC(F)(F)F)cc3C)c2cc1OC [Compound 99]
38 | < 50 | ≤ 6.30 |  |  | COc1cc2nccc(Oc3ccc(NC(=O)c4nn(CCN)cc4OCC(F)(F)F)nn3)c2cc1OC [Compound 125]
64 | 50 to 80 | ≤ 6.30 |  |  | CCCn1cc(OCC2CNC2)c(C(=O)Nc2ccc(Oc3ccnc4cc(OC)c(OC)cc34)cn2)n1 [Compound 159]
24 | < 50 | 6.30 to 7.00 |  |  | COc1cc2nccc(Oc3ccc(NC(=O)c4nn(CCO)cc4OCC(F)(F)F)cn3)c2cc1OC [Compound 129]
72 | 50 to 80 | > 7.00 |  |  | COc1cc2nccc(Oc3ccc(NC(=O)c4nn(CC5COC5)cc4OCC(F)(F)F)nn3)c2cc1OC [Compound 123]
